# According to patent US20250041272A1, “COMPOSITIONS AND METHODS FOR TREATING CANCER VIA PTP1B INHIBITION” (priority 2021, published 2025):
# B1: Gas6: recombinant Gas6, TAM family ligand (R&D systems) (protein, UniProt Q14393 31-678, looked up)
# Growth arrest-specific …: ALLPAREATQFLRPRQRRAFQVFEEAKQGHLERECVEELCSREEAREVFENDPETDYFYPRYLDCINKYGSPYTKNSGFATCVQNLPDQCTPNPCDRKGTQACQDLMGNFFCLCKAGWGGRLCDKDVNECSQENGGCLQICHNKPGSFHCSCHSGFELSSDGRTCQDIDECADSEACGEARCKNLPGSYSCLCDEGFAYSSQEKACRDVDECLQGRCEQVCVNSPGSYTCHCDGRGGLKLSQDMDTCEDILPCVPFSVAKSVKSLYLGRMFSGTPVIRLRFKRLQPTRLVAEFDFRTFDPEGILLFAGGHQDSTWIVLALRAGRLELQLRYNGVGRVTSSGPVINHGMWQTISVEELARNLVIKVNRDAVMKIAVAGDLFQPERGLYHLNLTVGGIPFHEKDLVQPINPRLDGCMRSWNWLNGEDTTIQETVKVNTRMQCFSVTERGSFYPGSGFAFYSLDYMRTPLDVGTESTWEVEVVAHIRPAADTGVLFALWAPDLRAVPLSVALVDYHSTKKLKKQLVVLAVEHTALALMEIKVCDGQEHVVTVSLRDGEATLEVDGTRGQSEVSAAQLQERLAVLERHLRSPVLTFAGGLPDVPVTSAPVTAFYRGCMTLEVNRRLLDLDEAAYKHSDITAHSCPPVEPAAA
# What was measured:
# [1] = tested on: Stat1 phosphorylation and MyD88 in macrophages; experiment: Transwell co-culture of M1 induced macrophages with tumor cells plus inhibitors (Western blot, qRT-PCR); assay type: cell-based, mouse; details: 24 hours
# Description: (§1) Peritoneal macrophage isolation and culture. Peritoneal macrophages were done as described previously(65) from 8-week-old C57BL/6J mice (randomized, both male and female). PBS (Gibco) was injected in the mural peritoneal cavity to release the macrophages. After recovering, cells were centrifuged at 1200 rpm for 5 minutes, resuspended in DMEM high glucose, 10% FBS, 1% penicillin-streptomycin (Gibco) and plated. 2 hours after the last step, cells were washed with PBS and maintained in DMEM/F12 supplemented with 10% FBS, 1% penicillin-streptomycin and 20 ng/ml of M-CSF (Prospec) for 2 days. Macrophages were treated for 24 hours with 50 ng/ml LPS (Sigma Millipore), 100 ng/ml IFNγ (BioLegend), 300 ng/ml PAM3CSK4 (InvivoGen), 107 cells/ml heat killed Listeria Monocytogenes (HKLM) (InvivoGen), 100 ng/ml Flagellin Salmonella typhimurium standard (InvivoGen), 10 ng/ml FSL1 (InvivoGen), 2.5 ug/ml ssRNA40 (InvivoGen), 2.5 ug/ml CL 075 (Tocris), 5 μM ODN1826, 50 μM Fludarabine (SelleckChem), 50 nM Momelotinib (SelleckChem), 5 μM BVT948 (Sigma Millipore), 200 μM PTP1b inhibitor III (Santa Cruz Biotechnology Inc.), 5 μM NSC87877 (Santa Cruz Biotechnology Inc.), 50 μM PTP1b inhibitor (Cayman), 1 mM PTP Inhibitor IV (Santa Cruz Biotechnology Inc.), 1 μM TSC401, 300 nM UNC2371 (SelleckChem), 300 nM BMS777607 (SelleckChem), 300 nM LDC1267 (SelleckChem) 1.5 μg/ml recombinant Pros1 (R&D systems), 200 ng/ml recombinant Gas6 (R&D systems) or 10-500 μM Cisplatin (Tocris). All components were added as described in the text. Cell culture. B16F10 (CRL-6475, ATCC), Lewis lung carcinoma (LLC) (CRL-1642, ATCC), KPC2713 (Yuliya Pylayeva-Gupta laboratory, UNC) and MDA-MB-231 (HTB-26, ATCC) were cultured in DMEM high glucose supplemented with 10% FBS, 1% penicillin-streptomycin (Gibco). […]
# [2] = tested on: macrophage M1 associated gene expression; experiment: Cisplatin treated transwell co-culture of macrophages and B16F10 cells, qRT-PCR; assay type: cell-based, mouse
# Description: Peritoneal macrophage isolation and culture. Peritoneal macrophages were done as described previously(65) from 8-week-old C57BL/6J mice (randomized, both male and female). PBS (Gibco) was injected in the mural peritoneal cavity to release the macrophages. After recovering, cells were centrifuged at 1200 rpm for 5 minutes, resuspended in DMEM high glucose, 10% FBS, 1% penicillin-streptomycin (Gibco) and plated. 2 hours after the last step, cells were washed with PBS and maintained in DMEM/F12 supplemented with 10% FBS, 1% penicillin-streptomycin and 20 ng/ml of M-CSF (Prospec) for 2 days. Macrophages were treated for 24 hours with 50 ng/ml LPS (Sigma Millipore), 100 ng/ml IFNγ (BioLegend), 300 ng/ml PAM3CSK4 (InvivoGen), 107 cells/ml heat killed Listeria Monocytogenes (HKLM) (InvivoGen), 100 ng/ml Flagellin Salmonella typhimurium standard (InvivoGen), 10 ng/ml FSL1 (InvivoGen), 2.5 ug/ml ssRNA40 (InvivoGen), 2.5 ug/ml CL 075 (Tocris), 5 μM ODN1826, 50 μM Fludarabine (SelleckChem), 50 nM Momelotinib (SelleckChem), 5 μM BVT948 (Sigma Millipore), 200 μM PTP1b inhibitor III (Santa Cruz Biotechnology Inc.), 5 μM NSC87877 (Santa Cruz Biotechnology Inc.), 50 μM PTP1b inhibitor (Cayman), 1 mM PTP Inhibitor IV (Santa Cruz Biotechnology Inc.), 1 μM TSC401, 300 nM UNC2371 (SelleckChem), 300 nM BMS777607 (SelleckChem), 300 nM LDC1267 (SelleckChem) 1.5 μg/ml recombinant Pros1 (R&D systems), 200 ng/ml recombinant Gas6 (R&D systems) or 10-500 μM Cisplatin (Tocris). All components were added as described in the text. Cell culture. B16F10 (CRL-6475, ATCC), Lewis lung carcinoma (LLC) (CRL-1642, ATCC), KPC2713 (Yuliya Pylayeva-Gupta laboratory, UNC) and MDA-MB-231 (HTB-26, ATCC) were cultured in DMEM high glucose supplemented with 10% FBS, 1% penicillin-streptomycin (Gibco). GEMM6 (Dr. Alisha Holtzhausen, UNC), KPPC4662 (Dr. Yuliya Pylayeva-Gupta laboratory, UNC), KPPC4548 (Yuliya Pylayeva-Gupta laboratory, UNC) and E0771 (CRL-3461, ATCC) were maintained in RPMI 1640 supplemented with […], 1% penicillin/streptomycin (Gibco) while PyMT cells were cultured in Ham's F-12K with 10% FBS, 1% penicillin-streptomycin (Gibco). Transwell assays were performed in 0.4 μm polyester membrane insert culture plates (Corning). 500,000 cells of each line were plated per well in DMEM/F12 supplemented with 10% FBS, 1% penicillin-streptomycin and 20 ng/ml of M-CSF for culture with mouse macrophages. SC cells (CRL-9855, ATCC) were cultured in IMDM with 10% FBS and 1% penicillin-streptomycin (Gibco). In transwell experiments with the SC cell line, cancer cells were also resuspended in IMDM media.
# qRT-PCR. RNA was isolated using the RNeasy Plus Mini Kit (Quiagen) and cDNA was prepared using the Reverse Transcription System (Promega) with one-hour reverse transcription process. qRT-PCR was done using the PowerUp™ SYBR™ Green Master Mix (Applied Biosystems) on a QuantStudio Pro Real-time PCR system (Applied Biosystems) with a 95° C. pretreatment of 10 min, 50 cycles of 95° C., 10 sec and 60° C., 1 min and melt curve at the end. Analysis was performed with the 2^−ΔΔCT method(136).
# [3] = tested on: B16F10 tumors; experiment: Subcutaneous B16F10 melanoma tumor model; assay type: in vivo, mouse; details: BVT948 10 mg/kg or Cisplatin 5 mg/kg intraperitoneal, treatment from 50 mm^3
# Description: (§2) Tumor implantation, treatment and harvest. For animal studies, 1*10^5 B16F10 luciferase-tagged melanoma cells, 1*10^6 GEMM6 melanoma cells or 2*10^6 LCC cells were implanted subcutaneously into C57BL/6J mice (randomized, both males and females, 000664 The Jackson laboratory). When indicated, mice received intraperitoneal injections 7 days after implantation with 100 μl of 5 mg/kg cisplatin (Tocris), 100 μl of 10 mg/kg BVT948 (Tocris) or 100 μl of 30 mg/kg of vemurafenib. 5 mice were used per experimental group and tumors were harvested when they reached 1.5 cm in any direction.
# (§3) Immunohistochemistry analysis. Immunohistochemistry assay was carried out in formalin-fixed, paraffin-embedded 4 μm sections using primary antibodies against F4:80 (AbD Serotec), CD11b (Abcam), CD4 (eBioscience) or CD8a (eBioscience) on a Discovery Ultra Automated IHC staining system (Ventana). Sections were then imaged using a ScanScope XT microscope (Aperio) and quantified using Aperio software.
# [4] = tested on: LLC tumors; experiment: Subcutaneous LLC tumor model; assay type: in vivo, mouse; details: BVT948 10 mg/kg or Cisplatin 5 mg/kg intraperitoneal, treatment from 50 mm^3
# Description: as §2, §3
# [5] = tested on: MyD88 expression in peritoneal macrophages; experiment: Individual TLR agonism of macrophages, MyD88 by qRT-PCR; assay type: cell-based, mouse; details: 24 hours
# Description: (§4) Peritoneal macrophage isolation and culture. Peritoneal macrophages were done as described previously(65) from 8-week-old C57BL/6J mice (randomized, both male and female). PBS (Gibco) was injected in the mural peritoneal cavity to release the macrophages. After recovering, cells were centrifuged at 1200 rpm for 5 minutes, resuspended in DMEM high glucose, 10% FBS, 1% penicillin-streptomycin (Gibco) and plated. 2 hours after the last step, cells were washed with PBS and maintained in DMEM/F12 supplemented with 10% FBS, 1% penicillin-streptomycin and 20 ng/ml of M-CSF (Prospec) for 2 days. […]
# [6] = tested on: Stat1 and MyD88 expression in pro-inflammatory macrophages; experiment: Stat1 or Jak1/2 inhibitor treatment of pro-inflammatory macrophages, qRT-PCR; assay type: cell-based, mouse; details: Fludarabine 50 μM, Momelotinib 50 nM
# Description: as §4
# [7] = tested on: macrophage MyD88 expression; experiment: Exogenous TAM ligand addition to pro-inflammatory macrophages, MyD88 qRT-PCR; assay type: cell-based, mouse; details: Pros1 1.5 ug/ml, Gas6 200 ng/ml, compared with transwell co-cultured B16F10 cells
# Description: as §1
molecule,measurement,setting,value
O=S(=O)(O)c1ccc2cc(N=Nc3cc(S(=O)(=O)O)c4cccnc4c3O)ccc2c1 [NSC87877],Stat1 phosphorylation at Tyrosine 701 and Serine 727,[1],increased
N.N.[Cl][Pt][Cl] [Cisplatin],activation of Mer deficient macrophages,"[2]; 25 μM Cisplatin, co-cultured with B16F10 tumor cells, no PTP1b inhibitor",macrophages could be activated even in the presence of tumor cells
same,"M1 associated gene expression, Cisplatin alone","[2]; even at 500 μM Cisplatin, wildtype macrophages with B16F10 cells",did not lead to substantially increased M1 associated gene expression
same,M1 gene expression in MyD88 knockout macrophages,"[2]; increasing Cisplatin, with or without BVT948","Neither increasing concentrations of Cisplatin, nor PTP1 b inhibition, were able to restore M1 gene expression"
same,"B16F10 tumor growth, monotherapy vs vehicle",[3],did not significantly reduce
same,"LLC tumor growth reduction, monotherapy",[4],30%
Pam3CSK4,MyD88 expression upon individual TLR agonism,[5],upregulation of MyD88
N#CCNC(=O)c1ccc(-c2ccnc(Nc3ccc(N4CCOCC4)cc3)n2)cc1 [Momelotinib],Stat1 expression,[6],did not significantly alter
same,MyD88 expression,[6]; compared with B16F10 transwell co-culture,did not significantly alter
"Pros1: recombinant murine Pros1, TAM family ligand (R&D systems)",macrophage MyD88 expression after exogenous ligand addition,[7],reduced comparably to that of tumor cell secretions
same,macrophage MyD88 expression after exogenous ligand addition,[7]; listed as Recombinant murine Pros1,suppresses macrophage MyD88 expression similarly to transwell co-culture with B16F10 cells
CCc1oc2cc(S(=O)(=O)Nc3ccc(S(=O)(=O)Nc4nccs4)cc3)ccc2c1C(=O)c1cc(Br)c(O)c(Br)c1 [PTP inhibitor],Stat1 phosphorylation at Tyrosine 701 and Serine 727,[1],increased
FSL-1,MyD88 expression upon individual TLR agonism,[5],upregulation of MyD88
B1,macrophage MyD88 expression after exogenous ligand addition,[7],limited effect
